Consider four compounds from US6646008B1, “Treatment of disease states which result from neoplastic cell proliferation using PPAR-γ activators and compositions useful therefor” (The Salk Institute for Biological Studies, priority 1996, dated 2003).

Test [1] relates to HL-60 cells. Put plainly: Growth of HL-60 cells in the presence of ligands. The format is cell-based. Conditions: 100 nM 9-cis RA, 100 nM LG268, 3 μM PG-J2, cell numbers after 3, 5 or 7 days. As for the experimental part: (§1) HL-60 cells were plated at a density of 2×10^5 cells/ml and were treated with:
(§2) 100 nM 9-cis retinoic acid (9-cis RA; which is both RAR and RXR active),
(§3) 100 nM LG268 (which is RXR selective),
(§4) 3 μM prostaglandin J2 (PG-J2; which is PPARγ active), or
(§5) a combination of 100 nM of LG268 and 3 μM of PG-J2.
Cell numbers were determined after 3, 5 or 7 days of culture, as illustrated in FIG. 1.

In test [2] the test system is HL-60 cells. Put plainly: Cell cycle analysis of HL-60 cells by flow cytometry (DNA content). The test is classed as cell-based. Conditions: for Cell Cycle Phase, % G1 / Cell Cycle Phase, % G2 / Cell Cycle Phase, % S: day 3, 100 nM 9-cis RA, 100 nM LG268, 3 μM PG-J2. As for the experimental part: as §1, §2, §3, §4, §5
Cell cycle analysis was carried out on day 3 using standard DNA content determination by flow cytometry.

Test [3] deals with NIH-vector cells. Put plainly: Adipocyte differentiation (oil red O lipid staining) of NIH-vector cells. Conditions: for % lipid containing cells: NIH (vector) cells, treated 7 days at confluence, 1 μM pioglitazone, 50 nM LG268, or 5 μM thiazolidinedione and 50 nM LG268, oil red O after four more days, range over three experiments. The test is classed as cell-based. As for the experimental part: Simultaneous exposure of competent cells to both PPARγ and RXR-specific ligand was investigated to determine if such combination might provide a stronger adipogenic signal than a PPARγ ligand alone. […] It has previously been shown that wild-type NIH-3T3 cells express RXRα but not PPARγ. NIH-vector and NIH-PPARγ cells were cultured as described in the Examples. […] After an additional four days of culture, cells were fixed and stained with oil red O. Data are presented in Table 1 as the range of morphologically recognizable differentiation observed for each line over three separate experiments.

The subject of test [4] is NIH-PPARγ cells. Briefly: Adipocyte differentiation (oil red O lipid staining) of NIH-3T3 fibroblasts expressing PPARγ from a retroviral vector. The format is cell-based. Conditions: for % lipid containing cells: NIH-PPARγ cells, treated 7 days at confluence, 1 μM pioglitazone, 50 nM LG268, or 5 μM thiazolidinedione and 50 nM LG268, oil red O after four more days, range over three experiments. As for the experimental part: Simultaneous exposure of competent cells to both PPARγ and RXR-specific ligand was investigated to determine if such combination might provide a stronger adipogenic signal than a PPARγ ligand alone. […] NIH-vector and NIH-PPARγ cells were cultured as described in the Examples.

In test [5] the test system is LS857 cells. Briefly: Differentiation of primary liposarcoma cell strain LS857 (lipid accumulation, morphology). The format is cell-based, human. Conditions: 7 days.
Test [6] has as its system HL-60 leukemia cells. Put plainly: CD14 differentiation antigen flow cytometry in HL-60 cells. Conditions: 5 days, 10 nM AM580, 100 nM LG268, 3 μM 15-deoxy-Δ12,14-prostaglandin-J2. The test is classed as cell-based. The protocol:
(§6) HL-60 and THP-1 leukemia cells were seeded at a ensity of 2×10^5 cells/ml and cultured in RPMI containing 10% charcoal-stripped fetal calf serum. Cells were treated with either vehicle alone, or 10 nM AM580, 100 nM LG268, or 3 μM 15-deoxy-Δ12,14-prostaglandin-J2. After 5 days, cells were incubated with monoclonal antibody to the monocyte-specific differentiation antigen CD14, and analyzed by flow cytometry using a Becton Dickinson FACScan.

Test [7] relates to THP-1 leukemia cells. Briefly: CD14 differentiation antigen flow cytometry in THP-1 cells. The test is classed as cell-based. Conditions: 5 days, 100 nM LG268, 3 μM 15-deoxy-Δ12,14-prostaglandin-J2. As for the experimental part:
as §6
(A flow cytometer gives signals particle by particle.)

The subject of test [8] is LS175 cells. Briefly: Differentiation of primary liposarcoma cell strain LS175. The format is cell-based, human. Conditions: 10 μM pioglitazone, 7 days. The protocol: Liposarcomas have presumably acquired one or more genetic defects that interfere with the course of normal adipocyte development. The observation that PPARγ is expressed consistently in these tumors raised the possibility that the malignant cells might be forced to complete the differentiation program by maximally iactivating the PPARγ pathway. To address this possibility, primary cells isolated from three human liposarcomas were cultured in vitro. Primary cell strains LS857 and LS175 were derived from well differentiated liposarcomas and LS707 was derived from an intermediate grade myxoid/round cell liposarcoma (see Table 5). High grade pleomorphic liposarcoma cells could not be expanded to sufficient numbers to permit studies of differentiation. A primary leiomyosarcoma cell line LM203 was cultured as a control. To confirm that these cultures consisted of malignant tumor-derived cells, cytogenetic analysis was performed.
When cultured in the presence of fetal bovine serum and insulin, conditions permissive for adipocyte differentiation, all three cell lines maintain a fibroblastic morphology. LS175 cells contained small amounts of stainable lipid under these conditions. […] The degree of morphologically recognizable differentiation varied from 40% in the LS857 cells to 75% in the LS175 cells. […]

Consider `CC1=C(/C=C/C(C)=C\C=C\C(C)=C\C(=O)O)C(C)(C)CCC1` [9-cis RA, 9-cis retinoic acid], for which the “effect on cell growth” value in test [1] is reported as “inhibit cell growth”. Moreover, the “effect on cell cycle progression” value in test [2] (day 3) is on record as “inhibits cell cycle progression”. In test [2], the “Cell Cycle Phase, % G1” value was 70.5%; the “Cell Cycle Phase, % G2” value is listed as 10.2%; the “Cell Cycle Phase, % S” value came out at 19.2%.

Regarding `Cc1cc2c(cc1C1(c3ccc(C(=O)O)cn3)CC1)C(C)(C)CCC2(C)C` [LG268, 6-[1-(3,5,5,8,8-pentamethyl-5,6,7,8-tetrahydronaphthalen-2-yl)cyclopropyl]nicotinic acid], the “% lipid containing cells” value is on record as 0% in test [3] and 50-65% in test [4]. The “adipogenic effect” value in test [3] (NIH-vector cells) is “no effect”. In addition, the “adipocyte differentiation” value in test [4] (confluent NIH-PPARγ cells, 7 days, 50 nM LG268 and/or 1 μM pioglitazone) is on record as “significant stimulation of adipocyte differentiation”; in test [5] (50 nM LG268, 10 μM pioglitazone), “significant degree of adipocyte differentiation”. For the same compound, the “lipid accumulation, oil red O, macroscopic view” value in test [5] (5 μM thiazolidinedione (BRL 49653 or pioglitazone), 50 nM LG268, stained after four more days) is reported as “significant lipid accumulation”. The “effect on cell growth” value in test [1] is “only a marginal ability to promote cell differentiation”. The “Cell Cycle Phase, % G1” value in test [2] is given as 54.5%. The “Cell Cycle Phase, % G2” value in test [2] came to 14.4%. For the same compound, in test [2], the “Cell Cycle Phase, % S” value is 31.1%. Moreover, the “median fluorescence (CD14)” value in test [6] is on record as 138; in test [7], 18.

In the case of `CCc1ccc(CCOc2ccc(CC3SC(=O)NC3=O)cc2)nc1` (stereo not shown) [pioglitazone], the “% lipid containing cells” value is recorded as 0% in test [3] and 60-70% in test [4]. The entries for the “degree of morphologically recognizable differentiation” value in test [5] (10 μM pioglitazone) and in test [8] were 40% and 75%, respectively.

On to AM580, for which, in test [6], the “median fluorescence (CD14)” value is 26.
